From patent US4055640A, “Compositions and methods for controlling the growth of bacteria, fungi and algae using certain derivatives of N-(2,2-dichlorovinyl)salicylamides” (Nippon Kayaku Co., Ltd., priority 1975, dated 1977) come the findings set out here.

Series [1] relates to Cucumber seeds (variety: Oyashima). The experiment in a line: Phytotoxicity on cucumber seeds (Experimental Example 7). Format: in vivo.
The subject of series [2] is seedlings of kidney beans (variety: Orient). The experiment in a line: Phytotoxicity on kidney beans (Experimental Example 5). Format: in vivo. The settings on record: 1,000 ppm.
In the next series the test system is Cladosporium cucumerinum. Nature of the series: Exterminating test for seed treatment (Experimental Example 7). Format: in vivo. An excerpt:
Exterminating test for seed treatment. Cucumber seeds (variety: Oyashima) were dipped in the spores suspension of Cladosporium cucumerinum and dried. After 1 day, the seeds were dressed with 80% wettable powder of the present invention. On the other hand, other seeds were dipped in the solution of 80% wettable powder of the present invention. Five (5) seeds treated by either dressing or dipping were placed on each potato dextrose agar plate. After 10 days after the treatment, degrees attacked by the pathogen were observed and the results were shown with an "Effective Index". An "Effective Index" was calculated as follows: [formula]

In series [3] the test system is Cladosporium cucumerinum (cucumber scab). The experiment in a line: Exterminating test on cucumber scab (Experimental Example 2). Format: in vivo. To be noted: 500 ppm, 5 days after inoculation. The arrangement: scale not given here. In outline:
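Potted cucumber seedlings (cv. Sagamihanjiro, 3–4 leaf stage) were sprayed with an aqueous suspension of 80% wettable powder, then spray-inoculated with Cladosporium cucumerinum spores 24 h later. Plants were held 24 h in a moist chamber at 20° C, then in a greenhouse at 20° C. Infected Index was scored 5 days after inoculation from leaf counts by attack severity.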

In series [4] the test system is Rhizoctonia solani (damping-off of cucumber). The experiment in a line: Exterminating test on damping-off of cucumber (Experimental Example 3). Format: in vivo. To be noted: Rhizoctonia solani, soil, 240 h, 1,000 ppm, soil drench 50 ml per pot, 10 days; read-out: Percentage of healthy seedlings. The method in brief:
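Pots of field soil infested with Rhizoctonia solani (5 g/pot), sown with 10 Azumamidori cucumber seeds, then drenched with 50 ml aqueous suspension of 80% wettable powder and kept in greenhouse. PCNB 50% wettable powder as control. Percentage of healthy seedlings scored 10 days after inoculation.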

Series [5] deals with cucumber seedlings (variety: Sagamihanjiro). Nature of the series: Phytotoxicity on cucumber seedlings (Experimental Example 2). Format: in vivo. To be noted: 500 ppm. In outline:
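Cucumber seedlings at the 3–4 leaf stage sprayed with water-diluted 80% wettable powder, then spray-inoculated with Cladosporium cucumerinum spores 24 h later. Plants held 24 h in a moist chamber at 20° C, then kept in a greenhouse at 20° C.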

For series [6], the system named is botrytis cinerea (gray mold). Nature of the series: Exterminating test on gray mold of tomato (Experimental Example 5). The settings on record: 1,000 ppm, 48 hours after inoculation, kidney bean leaves. The arrangement: scale not given here. Format: in vivo. The method in brief:
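Kidney bean seedlings (5-6 leaf stage) sprayed with water-diluted 80% wettable powder; leaves detached 24 h later and inoculated with B. cinerea agar disks under moist conditions. Lesion diameters measured 48 h post-inoculation to calculate an Effect Index.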

In another series the test system is summer orange seedlings. Nature of the series: Phytotoxicity on summer orange seedlings (Experimental Example 6). Format: in vivo. The settings on record: 1,000 ppm.
For series [7], the system named is seedling blight of rice plant (pathogen Fusarium sp. and Rhizoctonia sp.). The experiment in a line: Exterminating test on seedling blight of rice plant (Experimental Example 1). Format: in vivo. The settings on record: soil, 408 h, 0.25g/box a.i., 5% dust mixed with soil; read-out: Percentage of healthy seedlings. In outline:
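Pathogen-contaminated nursery soil (Fusarium sp., Rhizoctonia sp.) mixed with 5% compound dust at 5 g per box; Nihonbare rice sown, grown 7 days at 17° C in lighting chamber, then moved to field. Assessed 10 days later as percentage of healthy seedlings; commercial 4% hydroxyisoxazol dust run as control.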

The next series concerns Penicillium Citrinum. Nature of the series: Minimum inhibitory concentration, dilution methods (Example 14). Format: cell-based. The settings on record: for MIC: Penicillium citrinum. From the text:
(§1) Bacteriocidal activity and fungicidal activity of the active compounds of the present invention were examined by potato-dextrose agar dilution method, [2] waxman's liquid medium dilution method or [3] glucose bouillon medium dilution method. The results are shown in Table 4 below as the minimum inhibitory concentration (the minimum concentration of active compound found to produce 100% control of the test bacteria and fungi).

The test system of another series is Staphylococcus aureus. The description is as above. Format: cell-based. To be noted: for minimum inhibitory concentration: (1) potato-dextrose agar dilution method; for MIC: Staphylococcus aureus.
Text: as §1
A general note: In agar dilution, organisms are placed on agar that contains the substance at set levels.

For the next series, the system named is Aspergillus niger. Described as above. Format: cell-based.
Text: as §1

The mark [8] stands for this setting: (1) potato-dextrose agar dilution method.
Where [9] appears, read: (2) waxman's liquid medium dilution method.

In brackets after ≈: the same amount, converted by molar mass. Several values for one entry are separate records, joined by “and”; a condition that tells them apart may be missing. Equal values may be shown once. Where a name gives a salt, the structure may show the parent alone.

For `CC(=O)Oc1ccccc1C(=O)NC=C(Cl)Cl` [Compound No. 6, O-acetyl-N-(2,2-dichlorovinyl) salicylamide], the Phytotoxicity result in series [1] (dipped, 5,000 ppm (30 min.)) is “Nil”; in [1] (dressed, 1 %), “Nil”; in series [2], “Nil”; in series [5] it was “Nil”; in the series on summer orange seedlings it was “Nil”. Besides, the “Effective Index” value in the series with Cladosporium cucumerinum (dipped, 5,000 ppm (30 min.)) is 88 and 81; in the series on Cladosporium cucumerinum (dressed, 1 %), 95. Also, the “Infected Index” value in series [3] is 8.2. In series [4], the pest or weed control at 1000 ppm is 100%. Further, in [6], the “Effect Index” value is reported as 75. Besides, in [7], the Percentage of healthy seedlings at 0.25 g/box stood at 83.2%.

As a reminder, the MIC is the lowest concentration found to suppress growth. As to `O=C(NC=C(Cl)Cl)c1ccccc1O` [Compound No. 20, sodium salt of N-(β,β-dichlorovinyl) salicylamide], the Phytotoxicity entry in series [1] (dressed, 1 %) was “Nil”; in series [2] it was “Nil”; in series [5], “Nil”. Also, the figures for the minimum inhibitory concentration in the series with Penicillium Citrinum (setting [8]), with Staphylococcus aureus and with Aspergillus niger (setting [8]) were 10 mc g/ml, 6 mc g/ml and 10 mc g/ml, respectively. In addition, the MIC with Staphylococcus aureus ((3) glucose bouillon medium dilution method) was 5 µg/mL. Moreover, the “Effective Index” value with Cladosporium cucumerinum (dressed, 1 %) is reported as 90. In addition, the “Infected Index” value in series [3] was found to be 13.7. Moreover, in series [6], the “Effect Index” value is on record as 85.

With `O=C(NC=C(Cl)Cl)c1ccccc1O` [Compound No. 1, N-(β,β-dichlorovinyl) salicylamide], the Phytotoxicity result is “Nil” in [1] (dipped, 5,000 ppm (30 min.)); “Nil” in series [1] (dressed, 1 %); “Nil” in series [2]; “Nil” in [5]; “Nil” in the series on summer orange seedlings. The MIC against Penicillium Citrinum (setting [8]) was found to be 10 µg/mL (≈ 43.1 µM); against Penicillium Citrinum (setting [9]), 20 µg/mL (≈ 86.2 µM); in the series on Staphylococcus aureus (setting [9]), 2.5 µg/mL (≈ 10.8 µM); in the series on Aspergillus niger (Aspergillus niger, (1) potato-dextrose agar dilution method) it was 10 µg/mL (≈ 43.1 µM). For the same compound, the minimum inhibitory concentration is given as 2.5 mc g/ml with Staphylococcus aureus and 10 mc g/ml in the series on Aspergillus niger (setting [9]). For the same compound, the “Effective Index” value is listed as 69 in the series on Cladosporium cucumerinum (dipped, 5,000 ppm (30 min.)) and 87 in the series on Cladosporium cucumerinum (dressed, 1 %). The “Infected Index” value in series [3] is reported as 9.4. Further, the pest or weed control at 1000 ppm in series [4] is 100%. In addition, the “Effect Index” value in [6] was found to be 84. Besides, the Percentage of healthy seedlings at 0.25 g/box in series [7] is 80.2%.
